The structures appear in SMILES notation.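 Where inhibition never reached the appropriate level, the endpoint shown equals the highest concentration tested. Otherwise, values were interpolated linearly from a five-concentration, 48-hour dose response in 96-well plates. TGI: total growth inhibition.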

Some test systems named below: OVCAR-5 ovarian; UO-31 renal; M14 melanoma; SF-539 CNS; SF-295 CNS; SR leukemia; SNB-19 CNS; U251 CNS; IGROV1 ovarian; TK-10 renal; K-562 leukemia; MOLT-4 leukemia; T-47D breast; EKVX NSCLC; MDA-MB-435; MCF7 breast; DU-145 prostate; HCT-116 colon; RPMI-8226 leukemia; NCI/ADR-RES ovarian.
Common to all, as to assay: NCI tumour cell line growth inhibition, 48 h

On to `O=C(N/N=C/c1cc(Br)cc(Br)c1[O-])c1ccccc1O.O=C(N/N=C/c1cc(Br)cc(Br)c1[O-])c1ccccc1O.[Cu+2]`, for which the TGI in the experiment with OVCAR-5 ovarian stood at 2030 nM; with UO-31 renal, 1500 nM; with M14 melanoma it was 1050 nM; in the experiment with SF-539 CNS, 926 nM; in the experiment with SF-295 CNS it was 1240 nM; in the experiment on SR leukemia, 1170 nM. The TGI is 2280 nM in the experiment with SNB-19 CNS; 1240 nM in the experiment with U251 CNS; 1060 nM in the experiment with IGROV1 ovarian; 1580 nM in the experiment with TK-10 renal; 213 nM with K-562 leukemia; 2540 nM with MOLT-4 leukemia.
For the compound `CN1C2CCC1CC(C)(O)C2` (centres undefined), the TGI with T-47D breast is > 100 µM; in the experiment on EKVX NSCLC, > 100 µM; in the experiment with UO-31 renal, > 100000 nM; in the experiment on M14 melanoma it was > 100000 nM; in the experiment with SF-295 CNS it was > 100000 nM; in the experiment with SR leukemia, > 100000 nM. Besides, the TGI in the experiment with MDA-MB-435 is > 100 µM; in the experiment on SNB-19 CNS, > 100000 nM; in the experiment on U251 CNS, > 100000 nM; with MCF7 breast, > 100 µM; in the experiment on TK-10 renal, > 100000 nM; with DU-145 prostate, > 100 µM. Further, the TGI was > 100000 nM in the experiment on K-562 leukemia; > 100 µM with HCT-116 colon; > 100000 nM with MOLT-4 leukemia; > 100 µM with RPMI-8226 leukemia; > 100 µM in the experiment on NCI/ADR-RES ovarian.
